# Target: T1, Nem1-Spo7 protein phosphatase complex (Saccharomyces cerevisiae, UniProt P38757)
# T1 construct: Protein A-tagged Nem1 with Spo7, overexpressed in S. cerevisiae RS453, IgG-Sepharose purified, reconstituted into phospholipid vesicles
# T1 sequence (P38757 1-446): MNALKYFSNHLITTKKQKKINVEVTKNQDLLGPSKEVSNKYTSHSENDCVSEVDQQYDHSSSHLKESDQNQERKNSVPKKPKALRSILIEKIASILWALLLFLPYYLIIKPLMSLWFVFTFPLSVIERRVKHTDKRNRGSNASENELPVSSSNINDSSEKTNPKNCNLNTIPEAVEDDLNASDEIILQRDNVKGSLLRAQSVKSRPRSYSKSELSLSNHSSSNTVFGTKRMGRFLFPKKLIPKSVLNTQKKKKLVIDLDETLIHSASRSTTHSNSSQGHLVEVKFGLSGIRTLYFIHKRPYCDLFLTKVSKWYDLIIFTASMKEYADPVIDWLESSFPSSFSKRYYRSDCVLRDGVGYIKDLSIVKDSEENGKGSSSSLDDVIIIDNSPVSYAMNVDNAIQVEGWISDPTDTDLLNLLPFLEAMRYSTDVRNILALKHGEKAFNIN
# T1 sequence (P18410 1-259 partner): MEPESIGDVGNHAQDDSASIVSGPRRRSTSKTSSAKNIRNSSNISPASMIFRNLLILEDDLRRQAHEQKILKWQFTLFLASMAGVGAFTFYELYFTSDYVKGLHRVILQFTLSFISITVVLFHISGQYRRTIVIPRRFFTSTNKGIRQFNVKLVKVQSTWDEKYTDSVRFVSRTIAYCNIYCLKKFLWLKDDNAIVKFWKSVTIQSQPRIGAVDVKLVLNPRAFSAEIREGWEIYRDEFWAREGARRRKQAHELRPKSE
# Experiment: release of […] from […]Pah1, proteoliposomes
# Assay type: biochemical
# Conditions: activator (cooperative), direct binding not shown, membrane effect possible; reconstituted in PC/PE/PI/PS vesicles; substrate Pah1 phosphorylated by Pho85-Pho80; 10 mM MgCl2, pH 5.0, 30 °C
compound,measurement,value
CCCCCCCC/C=C\CCCCCCCC(=O)OC[C@H](COP(=O)(O)O)OC(=O)CCCCCCC/C=C\CCCCCCCC [PA],fold stimulation at 10 mol %,3.6 fold

# From publication PMC9587005, “Phosphatidic Acid Mediates the Nem1-Spo7/Pah1 Phosphatase Cascade in Yeast Lipid Synthesis” (Journal of Lipid Research, 2022)
